Results taken from patent US20240083890A1, “MACROCYCLIC BRANCHED 3-FLUORO-BUT-3-ENAMIDES AS INHIBITORS OF MCL-1” (JANSSEN PHARMACEUTICA NV, priority 2020, published 2024).
Where two headings read alike, the source gives them in different places.

What was measured:
[1] = biological target: Mcl-1 (Homo sapiens (Human), UniProt Q07820); experiment: Terbium labeled Mcl-1 HTRF binding assay, displacement of Cy5-labeled BIM BH3 peptide; conditions: Ki=IC50/(1+[L]/Kd), [L]=8 nM, Kd=10 nM; 25 pM Tb-Mcl-1, 8 nM Cy5 Bim peptide, 60 min; read-out: Tb-MCL1 Ki
Sequence of Mcl-1 (Q07820 whole entry): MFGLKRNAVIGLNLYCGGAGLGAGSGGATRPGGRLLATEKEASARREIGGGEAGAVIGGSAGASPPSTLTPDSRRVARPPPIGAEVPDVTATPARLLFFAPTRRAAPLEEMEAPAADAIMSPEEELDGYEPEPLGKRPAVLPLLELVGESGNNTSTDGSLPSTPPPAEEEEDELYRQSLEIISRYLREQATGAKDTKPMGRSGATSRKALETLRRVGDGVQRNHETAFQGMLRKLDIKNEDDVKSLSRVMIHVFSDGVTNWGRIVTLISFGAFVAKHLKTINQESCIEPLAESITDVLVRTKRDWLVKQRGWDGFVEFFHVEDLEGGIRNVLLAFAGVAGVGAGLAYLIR
Experimental: Terbium labeled Myeloid Cell Leukemia 1(Mcl-1) homogeneous time-resolved fluorescence (HTRF) binding assay utilizing the BIM BH3 peptide (H2N—(C/Cy5Mal) WIAQELRRIGDEFN-OH) as the binding partner for Mcl-1.
This assay evaluated inhibition of the BH3 domain: Mcl-1 interaction by measuring the displacement of Cy5-labeled BIM BH3 peptide (H2N—(C/Cy5Mal) WIAQELRRIGDEFN-OH) in the HTRF assay format.
The following assay and stock buffers were prepared for use in the assay: (a) Stock buffer: 10 mM Tris-HCl, pH=7.5+150 mM NaCl, filtered, sterilized, and stored at 4° C.; and (b) 1× assay buffer, where the following ingredients were added fresh to stock buffer: 2 mM dithiothreitol (DTT), 0.0025% Tween-20, 0.1 mg/mL bovine serum albumin (BSA). The 1× Tb-Mcl-1+Cy5 Bim peptide solution was prepared by diluting the protein stock solution using the 1× assay buffer (b) to 25 pM Tb-Mcl-1 and 8 nM Cy5 Bim peptide.
Using the Acoustic ECHO, 100 nL of 100× test compound(s) were dispensed into individual wells of a white 384-well Perkin Elmer Proxiplate, for a final compound concentration of 1× and final DMSO concentration of 1%. Inhibitor control and neutral control (NC, 100 nL of 100% DMSO) were stamped into columns 23 and 24 of assay plate. Into each well of the plate was then dispensed 10 μL of the 1× Tb-Mcl-1+Cy5 Bim peptide solution. The plate was centrifuged with a cover plate at 1000 rpm for 1 minute, then incubated for 60 minutes at room temperature with plates covered.
The TR-FRET signal was read on an BMG PHERAStar FSX MicroPlate Reader at room temperature using the HTRF optic module (HTRF: excitation: 337 nm, light source: laser, emission A: 665 nm, emission B: 620 nm, integration start: 60 μs, integration time: […]).
The BMG PHERAStar FSX MicroPlate Reader was used to measure fluorescence intensity at two emission wavelengths—665 nm and 620 nm—and report relative fluorescence units (RFU) for both emissions, as well as a ratio of the emissions (665 nm/620 nm)*10,000. The RFU values were normalized to percent inhibition as follows:
% inhibition (((NC−IC)−(compound-IC))/(NC−IC))*100
where IC (inhibitor control, low signal)=mean signal of 1× Tb-MCl-1+Cy5 Bim peptide+inhibitor control or 100% inhibition of Mel-1; NC (neutral control, high signal)=mean signal 1× Tb-MCI-1+Cy5 Bim peptide with DMSO only or 0% inhibition
An 11-point dose response curve was generated to determine IC50 values (using GenData) based on the following equation:
Y=Bottom+(Top-Bottom)/(1+10^((log IC50−X)*HillSlope))
where Y=% inhibition in the presence of X inhibitor concentration; Top=100% inhibition derived from the IC (mean signal of Mcl-1+inhibitor control); Bottom=0% inhibition derived from the NC (mean signal of Mcl-1+DMSO); Hillslope=Hill coefficient; and IC50=concentration of compound with 50% inhibition in relation to top/neutral control (NC).
In this assay [L]=8 nM and Kd=10 nM
Representative compounds of the present invention were tested according to the procedure as described above, with results as listed in the Table below (n.d. means not determined).

[2] = test system: MOLP-8 human multiple myeloma cell line; experiment: Caspase-Glo 3/7 apoptosis induction assay in MOLP-8 cells; type: cell-based; conditions: caspase-3/7 activation, 2 hours incubation at 37° C., averaged over all runs on all batches, read-out: MOLP8 AC50
Source text: MCL-1 is a regulator of apoptosis and is highly over-expressed in tumor cells that escape cell death. The assay evaluates the cellular potency of small-molecule compounds targeting regulators of the apoptosis pathway, primarily MCL-1, Bfl-1, Bcl-2, and other proteins of the Bcl-2 family. Protein-protein inhibitors disrupting the interaction of anti-apoptotic regulators with BH3-domain proteins initiate apoptosis.
The Caspase-Glo® 3/7 Assay is a luminescent assay that measures caspase-3 and -7 activities in purified enzyme preparations or cultures of adherent or suspension cells. The assay provides a proluminescent caspase-3/7 substrate, which contains the tetrapeptide sequence DEVD. This substrate is cleaved to release aminoluciferin, a substrate of luciferase used in the production of light. Addition of the single Caspase-Glo® 3/7 Reagent in an “add-mix-measure” format results in cell lysis, followed by caspase cleavage of the substrate and generation of a “glow-type” luminescent signal.
This assay uses the MOLP-8 human multiple myeloma cell line, which is sensitive to MCL-1 inhibition.
Cell cultures were maintained between 0.2 and 2.0×10^6 cells/mL. The cells were harvested by collection in 50 mL conical tubes. The cells were then pelleted at 500 g for 5 mins before removing supernatant and resuspension in fresh pre-warmed culture medium. The cells were counted and diluted as needed.
The assay reagent was prepared by transferring the buffer solution to the substrate vial and mixing. The solution may be stored for up to 1 week at 4° C. with negligible loss of signal.
Compounds were delivered in assay-ready plates (Proxiplate) and stored at −20° C.
Assays always include 1 reference compound plate containing reference compounds. The plates were spotted with 40 nL of compounds (0.5% DMSO final in cells; serial dilution; 30 μM highest conc. 1/3 dilution, 10 doses, duplicates). The compounds were used at room temperature and 4 μL of pre-warmed media was added to all wells except column 2 and 23. The negative control was prepared by adding 1% DMSO in media. The positive control was prepared by adding the appropriate positive control compound in final concentration of 60 μM in media. The plate was prepared by adding 4 μL negative control to column 23, 4 μL positive control to column 2, and 4 μL cell suspension to all wells in the plate. The plate with cells was then incubated at 37° C. for 2 hours. The assay signal reagent is the Caspase-Glo solution described above, and 8 μL was added to all wells. The plates were then sealed and measured after 30 minutes.
The activity of a test compound was calculated as percent change in apoptosis induction as follows: • LC=median of the Low Control values • =Central Reference in Screener • =DMSO • =0% • HC=Median of the High Control values • =Scale Reference in Screener • =30 μM of positive control • =100% apoptosis induction
% Effect (AC50)=100−((sample-LC)/(HC-LC))*100
% Control=(sample/HC)*100
% Control min=((sample-LC)/(HC-LC))*100
Table: Measured AC50 for Representative Compounds of Formula (I). Averaged values are reported over all runs on all batches of a particular compound.

## C[C@@H]1[C@@H](C)C/C=C(\F)C(C(O)COCC2CCOCC2)N2CC[C@H]2CN2C[C@@]3(CCCc4cc(Cl)ccc43)COc3ccc(cc32)C(=O)NS1(=O)=O (single isomer, unassigned) [Compound 5]
[1]
  Ki: 0.23 nM
[2]; Homo sapiens, MOLP-8
  AC50: 238 nM

## C[C@@H]1[C@@H](C)C/C=C(\F)[C@H]([C@@H](C)O)N2CC[C@H]2CN2C[C@@]3(CCCc4cc(Cl)ccc43)COc3ccc(cc32)C(=O)NS1(=O)=O [Compound 1]
[1]
  Ki: 0.326 nM
[2]; Homo sapiens, MOLP-8
  AC50: 116 nM

## C[C@H](O)[C@H]1/C(F)=C/C[C@H](C)[C@@H](C)S(=O)(=O)NC(=O)c2ccc3c(c2)N(C[C@@H]2CCN21)C[C@@]1(CCCc2cc(Cl)ccc21)CO3 [Compound 2]
[1]
  Ki: 0.106 nM
[2]; Homo sapiens, MOLP-8
  AC50: 122 nM

## C[C@@H]1[C@@H](C)C/C=C(\F)[C@H]([C@@H](C)O)N2CCC[C@H]2CN2C[C@@]3(CCCc4cc(Cl)ccc43)COc3ccc(cc32)C(=O)NS1(=O)=O [Compound 3]
[1]
  Ki: 1.56 nM
[2]; Homo sapiens, MOLP-8
  AC50: 217 nM

## C[C@H](O)[C@H]1/C(F)=C/C[C@H](C)[C@@H](C)S(=O)(=O)NC(=O)c2ccc3c(c2)N(C[C@@H]2CCCN21)C[C@@]1(CCCc2cc(Cl)ccc21)CO3 [Compound 4]
[1]
  Ki: 0.236 nM
[2]; Homo sapiens, MOLP-8
  AC50: 238 nM

## C[C@@H]1[C@@H](C)C/C=C(\F)[C@H]([C@@H](O)COCC2CCOCC2)N2CC[C@H]2CN2C[C@@]3(CCCc4cc(Cl)ccc43)COc3ccc(cc32)C(=O)NS1(=O)=O [Compound 6]
[1]
  Ki: 0.053 nM
[2]; Homo sapiens, MOLP-8
  AC50: 68.5 nM

## COC[C@]1([C@@H]2COC(C)(C)O2)/C(F)=C/C[C@H](C)[C@@H](C)S(=O)(=O)NC(=O)c2ccc3c(c2)N(C[C@@H]2CCN21)C[C@@]1(CCCc2cc(Cl)ccc21)CO3 [Compound 7]
[1]
  Ki: 0.221 nM
[2]; Homo sapiens, MOLP-8
  AC50: 134 nM

## CO[C@@H](CO)[C@@]1(CO)/C(F)=C/C[C@H](C)[C@@H](C)S(=O)(=O)NC(=O)c2ccc3c(c2)N(C[C@@H]2CCN21)C[C@@]1(CCCc2cc(Cl)ccc21)CO3 [Compound 8]
[1]
  Ki: 0.357 nM
[2]; Homo sapiens, MOLP-8
  AC50: 3960 nM

## C[C@@H]1[C@@H](C)C/C=C(\F)[C@@]2(COC(C)(C)OC[C@@H]2O)N2CC[C@H]2CN2C[C@@]3(CCCc4cc(Cl)ccc43)COc3ccc(cc32)C(=O)NS1(=O)=O [Compound 9]
[1]
  Ki: 0.04 nM
[2]; Homo sapiens, MOLP-8
  AC50: 64.8 nM

## C[C@@H]1[C@@H](C)C/C=C(\F)[C@](CO)([C@@H]2COC(C)(C)O2)N2CC[C@H]2CN2C[C@@]3(CCCc4cc(Cl)ccc43)COc3ccc(cc32)C(=O)NS1(=O)=O [Compound 10]
[2]; Homo sapiens, MOLP-8
  AC50: 553 nM

## C[C@@H]1[C@@H](C)C/C=C(\F)[C@@]2(COC(C)(C)OC[C@@H]2O)N2CCC[C@H]2CN2C[C@@]3(CCCc4cc(Cl)ccc43)COc3ccc(cc32)C(=O)NS1(=O)=O [Compound 11]
[1]
  Ki: 0.172 nM
[2]; Homo sapiens, MOLP-8
  AC50: 96.5 nM

## CO[C@H]1COC(C)(C)OC[C@@]12/C(F)=C/C[C@H](C)[C@@H](C)S(=O)(=O)NC(=O)c1ccc3c(c1)N(C[C@@H]1CCCN12)C[C@@]1(CCCc2cc(Cl)ccc21)CO3 [Compound 12]
[1]
  Ki: 0.359 nM
[2]; Homo sapiens, MOLP-8
  AC50: 885 nM

## C[C@@H]1[C@@H](C)C/C=C(\F)C2(COC(C)(C)OC2)N2CC[C@H]2CN2C[C@@]3(CCCc4cc(Cl)ccc43)COc3ccc(cc32)C(=O)NS1(=O)=O [Compound 13]
[1]
  Ki: 1.77 nM
[2]; Homo sapiens, MOLP-8
  AC50: 1110 nM

## C[C@@H]1[C@@H](C)C/C=C(\F)C2(COC(C)(C)OC2)N2CCC[C@H]2CN2C[C@@]3(CCCc4cc(Cl)ccc43)COc3ccc(cc32)C(=O)NS1(=O)=O [Compound 14]
[1]
  Ki: 0.241 nM
[2]; Homo sapiens, MOLP-8
  AC50: 759 nM

## COC[C@H](OC)[C@@]1(COC)/C(F)=C/C[C@H](C)[C@@H](C)S(=O)(=O)NC(=O)c2ccc3c(c2)N(C[C@@H]2CCN21)C[C@@]1(CCCc2cc(Cl)ccc21)CO3 [Compound 15]
[2]; Homo sapiens, MOLP-8
  AC50: 503 nM

## COC[C@H](O)[C@@]1(COC)/C(F)=C/C[C@H](C)[C@@H](C)S(=O)(=O)NC(=O)c2ccc3c(c2)N(C[C@@H]2CCN21)C[C@@]1(CCCc2cc(Cl)ccc21)CO3 [Compound 16]
[1]
  Ki: 0.072 nM
[2]; Homo sapiens, MOLP-8
  AC50: 222 nM

## C[C@@H]1[C@@H](C)C/C=C(\F)[C@H]([C@@H](C)O)N2CCC[C@H]2CN2C[C@@]3(CCOc4cc(Cl)ccc43)COc3ccc(cc32)C(=O)NS1(=O)=O [Compound 17]
[1]
  Ki: 2.41 nM
[2]; Homo sapiens, MOLP-8
  AC50: 3350 nM

## C[C@H](O)[C@@H]1/C(F)=C/C[C@H](C)[C@@H](C)S(=O)(=O)NC(=O)c2ccc3c(c2)N(C[C@@H]2CCCN21)C[C@@]1(CCOc2cc(Cl)ccc21)CO3 [Compound 18]
[1]
  Ki: 0.606 nM
[2]
  AC50: 3420 nM

## C[C@@H]1[C@@H](C)C/C=C(\F)[C@H]([C@@H](O)Cn2cccn2)N2CC[C@H]2CN2C[C@@]3(CCCc4cc(Cl)ccc43)COc3ccc(cc32)C(=O)NS1(=O)=O [Compound 19]
[1]
  Ki: 0.049 nM
[2]; Homo sapiens, MOLP-8
  AC50: 126 nM

## C[C@@H]1[C@@H](C)C/C=C(\F)[C@H]([C@@H](O)COC2CCOCC2)N2CCC[C@H]2CN2C[C@@]3(CCCc4cc(Cl)ccc43)COc3ccc(cc32)C(=O)NS1(=O)=O [Compound 20]
[1]
  Ki: 0.052 nM
[2]; Homo sapiens, MOLP-8
  AC50: 272 nM

## C[C@@H]1[C@@H](C)C/C=C(\F)[C@H]([C@@H](O)CN2CCOCC2)N2CC[C@H]2CN2C[C@@]3(CCCc4cc(Cl)ccc43)COc3ccc(cc32)C(=O)NS1(=O)=O [Compound 21]
[1]
  Ki: 0.051 nM
[2]; Homo sapiens, MOLP-8
  AC50: 87.9 nM
